Source: patent US10239829B2, “Antagonists of the glucagon receptor” (Metabasis Therapeutics, Inc., priority 2007, dated 2019)

What was measured:
db/db mice = experiment: Glucose lowering in db/db mice; assay type: in vivo, mouse; settings: freely-feeding; for inhibition in vivo at 30 mg/kg / inhibition in vivo at 100 mg/kg: Mus musculus, oral gavage, 100% = normalization to lean db/+ mice; for Glucose lowering: vs vehicle-treated db/db mice
Description: Purpose: To assess the effects of compounds of the invention on blood glucose levels in the db/db mouse, an animal model of type 2 diabetes.
Methods: Compounds were dissolved in polyethylene glycol-400 and administered by oral gavage to db/db mice in the freely-feeding state at doses of 30 and/or 100 mg/kg. Blood glucose levels were assessed in blood samples obtained by tail bleed at baseline (prior to drug administration) and at regular time intervals over 24 hours using a portable glucometer such as the OneTouch or HemoCue meters. The magnitude of blood glucose lowering elicited by the compounds of the invention was determined by comparison to those in db/db mice administered only the vehicle. The percentage glucose lowering was calculated by factoring in the blood glucose levels of vehicle-treated lean db/+(heterozygote) mice, with 100% representing the normalization of blood glucose levels from the hyperglycemic state (vehicle-treated db/db mice) to the normoglycemic state (vehicle-treated db/+ mice).

[1] = test system: glucagon-challenged Beagle dogs; experiment: Glucose lowering in glucagon-challenged Beagle dogs; assay type: in vivo, dog; settings: Beagle dogs (n=3), oral gavage 38 mg/kg in PEG-400, glucagon 20 μg s.c. after 1.5 hours
Description: Purpose: To assess the effects of compounds of the invention on blood glucose levels in glucagon-challenged Beagle dogs.
Methods: Beagle dogs (n=3) were treated with vehicle (polyethylenelglycol-400) by oral gavage. After 1.5 hours, glucagon (20 μg) was administered subcutaneously. Blood glucose levels were measured prior to glucagon administration and at 10-minute intervals thereafter for up to an hour. Blood samples for these determinations were obtained from a superficial ear vein and were measured using a OneTouch glucometer. After a 1-week washout, the animals were treated by oral gavage with the compound of Example 2.009 at a dose of 38 mg/kg (polyethylenelglycol-400 formulation). The glucagon challenge and blood sampling were then performed as before.

[2] = oral gavage in PEG-400, dose 30 mg/Kg
[3] = oral gavage in PEG-400, dose 100 mg/Kg

In the case of `CC(C)(C)COc1ccc(C(Cc2ccc(C(=O)NCCS(=O)(=O)O)cc2)C(=O)Nc2ccc(-c3ccc(C(F)(F)F)cc3Cl)cc2)cc1` (centres unmarked) [Example 1.314], the inhibition in vivo at 30 mg/kg (db/db mice) was 40% and the “Glucose lowering” value (db/db mice; [2]) was 95 mg/dL.

In the case of `Cc1cc(NC(=O)C(Cc2ccc(C(=O)NCCS(=O)(=O)O)cc2)c2ccc(OCC(C)(C)C)cc2)ccc1-c1ccc(C(F)(F)F)cc1C` (centres unmarked) [Example 1.311], the inhibition in vivo at 30 mg/kg (db/db mice) was 36% and the “Glucose lowering” value (db/db mice; [2]) was 109 mg/dL.

With `Cc1cc(C(F)(F)F)ccc1-c1ccc(NC(=O)C(Cc2ccc(C(=O)NCCS(=O)(=O)O)cc2)c2ccc(/C=C/C(C)(C)C)cc2)cc1` (centres unmarked) [Example 1.320] the inhibition in vivo at 30 mg/kg (db/db mice) was 39% and the “Glucose lowering” value (db/db mice; [2]) was 121 mg/dL.

With `CC(C)(C)/C=C/c1ccc(C(Cc2ccc(C(=O)NCCS(=O)(=O)O)cc2)C(=O)Nc2ccc(C3=Cc4ccccc4C3)cc2)cc1` (centres unmarked) [Example 1.321] the inhibition in vivo at 30 mg/kg (db/db mice) was 68% and the “Glucose lowering” value (db/db mice; [2]) was 161 mg/dL.

In the case of `CC(C)(C)C1CCC(C(Cc2ccc(C(=O)NCCS(=O)(=O)[O-])cc2)C(=O)Nc2ccc(-c3ccc(Cl)cc3Cl)cc2)CC1.[Na+]` (centres unmarked) [Example 1.138], the inhibition in vivo at 30 mg/kg (db/db mice) was 6% and the “Glucose lowering” value (db/db mice; [2]) was 19 mg/dL.

With `O=C(NCCS(=O)(=O)O)c1ccc(CC(C(=O)Nc2ccc(-c3cc4ccccc4o3)cc2Cl)c2ccc(OC(F)(F)F)cc2)cc1` (centres unmarked) [Example 1.155] the inhibition in vivo at 30 mg/kg (db/db mice) was 49% and the “Glucose lowering” value (db/db mice; [2]) was 108 mg/dL.

In the case of `CC(C)(C)/C=C/c1ccc(C(Cc2ccc(C(=O)NCCS(=O)(=O)[O-])cc2)C(=O)Nc2ccc(-c3ccc(C(F)(F)F)cc3Cl)cc2)cc1.[Na+]` (centres unmarked) [Example 1.135], the inhibition in vivo at 100 mg/kg (db/db mice) was 41% and the “Glucose lowering” value (db/db mice; [3]) was 131 mg/dL.

In the case of `Cc1cc(Cl)ccc1-c1ccc(NC(=O)C(Cc2ccc(C(=O)NCCS(=O)(=O)O)cc2)c2ccc(C3=CCC(C(C)(C)C)CC3)cc2)cc1` (centres unmarked) [Example 1.269], the inhibition in vivo at 30 mg/kg (db/db mice) was 42% and the “Glucose lowering” value (db/db mice; [2]) was 124 mg/dL.

In the case of `CC(C)(C)/C=C/c1ccc(C(Cc2ccc(C(=O)NCCS(=O)(=O)[O-])cc2)C(=O)Nc2ccc(-c3ccc(Cl)cc3Cl)cc2)cc1.[Na+]` (centres unmarked) [Example 1.133], the inhibition in vivo at 30 mg/kg (db/db mice) was 57% and the “Glucose lowering” value (db/db mice; [2]) was 157 mg/dL.

For `Cc1cc(Cl)ccc1-c1ccc(NC(=O)C(Cc2ccc(C(=O)NCCS(=O)(=O)O)cc2)c2ccc(/C=C/C(C)(C)C)cc2)cc1Cl` (centres unmarked) [Example 1.359], the inhibition in vivo at 100 mg/kg (db/db mice) was 48% and the “Glucose lowering” value (db/db mice; [3]) was 150 mg/dL.

In the case of `CC(C)(C)/C=C/c1ccc(C(Cc2ccc(C(=O)NCCS(=O)(=O)[O-])cc2)C(=O)Nc2ccc(-c3cc4ccccc4o3)cc2)cc1.[Na+]` (centres unmarked) [Example 1.052], the inhibition in vivo at 30 mg/kg (db/db mice) was 61% and the “Glucose lowering” value (db/db mice; [2]) was 147 mg/dL.

For `CCC(c1ccc(C(=O)NCCS(=O)(=O)O)cc1)C(C(=O)Nc1ccc(-c2ccc(Cl)cc2Cl)cc1)c1ccc(/C=C/C(C)(C)C)cc1` (centres unmarked) [Example 1.315], the inhibition in vivo at 30 mg/kg (db/db mice) was 57% and the “Glucose lowering” value (db/db mice; [2]) was 172 mg/dL.

In the case of `CC(c1ccc(C(=O)NCCS(=O)(=O)[O-])cc1)C(C(=O)Nc1ccc(-c2ccc(Cl)cc2Cl)cc1)c1ccc(/C=C/C(C)(C)C)cc1.[Na+]` (centres unmarked) [Example 1.137], the inhibition in vivo at 30 mg/kg (db/db mice) was 53% and the “Glucose lowering” value (db/db mice; [2]) was 159 mg/dL.

`CC(C)(C)c1ccc(C(Cc2ccc(C(=O)NCCS(=O)(=O)[O-])cc2)c2cc(-c3cccc(-c4ccc(Cl)cc4)c3)on2)cc1.[Na+]` (centres unmarked) [Example 2.009] was tested, and the “attenuation of the glucagon-induced glucose excursion” value [1] was “approximately 40%”.

For `CC(C)(C)C1CC=C(c2ccc(C(Cc3ccc(C(=O)NCCS(=O)(=O)O)cc3)C(=O)Nc3ccc(-c4ccc(C(F)(F)F)cc4Cl)cc3)cc2)CC1` (centres unmarked) [Example 1.270], the inhibition in vivo at 30 mg/kg (db/db mice) was 24% and the “Glucose lowering” value (db/db mice; [2]) was 63 mg/dL.

`Cc1cc(C(F)(F)F)ccc1-c1ccc(NC(=O)C(Cc2ccc(C(=O)NCCS(=O)(=O)O)cc2)c2ccc(/C=C/C(C)(C)C)cc2)cc1Cl` (centres unmarked) [Example 1.173] was tested, and the inhibition in vivo at 30 mg/kg (db/db mice) was 50% and the “Glucose lowering” value (db/db mice; [2]) was 172 mg/dL.

For `CC(C)(C)COc1ccc(C(Cc2ccc(C(=O)NCCS(=O)(=O)O)cc2)C(=O)Nc2ccc(-c3ccc(Cl)cc3Cl)cc2)cc1.[Na+]` (centres unmarked) [Example 1.136], the inhibition in vivo at 30 mg/kg (db/db mice) was 16% and the “Glucose lowering” value (db/db mice; [2]) was 47 mg/dL.

For `Cc1cc(NC(=O)C(Cc2ccc(C(=O)NCCS(=O)(=O)O)cc2)c2ccc(/C=C/C(C)(C)C)cc2)ccc1-c1ccc(C(F)(F)F)cc1Cl` (centres unmarked) [Example 1.179], the inhibition in vivo at 30 mg/kg (db/db mice) was 34% and the “Glucose lowering” value (db/db mice; [2]) was 102 mg/dL.
